According to PMC6572996, “Silver(I) Complexes of the Pharmaceutical Agents Metronidazole and 4-Hydroxymethylpyridine: Comparison of Cytotoxic Profile for Potential Clinical Application” (Molecules, 2019):

What was measured:
Balb/c 3T3 cells [1] = experiment: MTT assay (mitochondrial activity), Balb/c 3T3; format: cell-based, mouse; conditions: for Lowest concentration with significant (p ≤ 0.05) inhibition of mitochondrial activity (MTT): Balb/c 3T3, 72 h, vs negative control 0.1% DMSO
Description: (§1) Data obtained from the measurement of the optical density in these assays were transformed to percentages in relation to the control group, considered to be 100% for the MTT, NRU, and TPC assays and 0% for the LDH assay (Figure 1).
(§2) The human hepatoma cell line (HepG2) was purchased from the American Type Culture Collection (ATCC HB-8065). These cells were cultured in Minimum Essential Medium Eagle (MEME) (ATCC). The murine fibroblast cell line (Balb/c 3T3 clone A31) (gift from Department of Swine Diseases of the National Veterinary Research Institute in Pulawy) was cultured in Dulbecco’s Modified Eagle’s Medium (DMEM) (ATCC). The media were supplemented with 10% BCS (Balb/c 3T3), 10% FBS (HepG2), 1% L-glutamine, and 1% antibiotic solution. The cells were maintained in 75 cm^2 cell culture flasks (Nunc, Roskilde, Denmark) in a humidified incubator, NuAire (Plymouth, MN, USA) at 37 °C, in an atmosphere of 5% CO2. The medium was refreshed every two or three days and the cells were trypsinized by 0.25% trypsin–0.02% EDTA after reaching 70–80% confluence. Single cell suspensions were prepared and adjusted to a density of 2 × 10^5 cells/mL (HepG2) and 5 × 10^4 cells/mL (Balb/c 3T3). The cell suspension was transferred to 96-well plates (100 µL/well) and incubated for 24 h before the exposure to the study compounds.
(§3) The concentration ranges of compounds were chosen according to their solubility and their plasma level. Each compound was dissolved in DMSO. The final concentration of DMSO was 0.1% in the medium. The same final concentrations of the solvent and the 1% Trition-X 100 solution were used as the negative and positive controls, respectively. […] All compound solutions in the medium were freshly prepared and protected from light. […] The concentration range was selected on the basis of results from previous studies. Each concentration was tested in six replicates with three independent experiments. Cytotoxicity was assessed after 72 h of exposure of the cells to the compounds. The medium was not changed during the incubation time.
(§4) The metabolic activity of living cells was assessed by measuring the activity of dehydrogenases. After incubation of the cells with the compounds, a 10 μL portion of the MTT solution (5 mg/ml in PBS) was added to each well of the 96-well plates and incubated. After 3 h, the MTT solution was removed and the intracellular formazan crystals were dissolved in 100 µl DMSO. The plate was shaken for 15 min at room temperature and transferred to a microplate reader (LabSystems Multiskan RC, Thermo Fisher Scientific, Waltham, MA, USA) to measure the absorbance at 570 nm, using blanks as a reference. Cytotoxicity was expressed as a percentage of the negative control (0.1% DMSO).
(§5) The results of the tests were expressed as a mean ± SD. The experiments were performed in three independent repetitions. Statistical analysis was performed using GraphPad Prism 5 (San Diego, CA, USA). One-way analysis of variance (ANOVA) followed by Dunnett’s post-hoc test was applied. The 50% inhibition (cytotoxicity) concentrations (IC50) were derived from the dose–response curve plotted with the concentration of the compound (X-axis) vs. cell viability percent (Y-axis). The IC50 values were calculated by GraphPad Prism 5 software (San Diego, CA, USA). Statistical comparisons among IC50 values were performed by the analysis of variance (ANOVA) followed by the Tukey test. Values of p ≤ 0.05 were considered statistically significant.

Balb/c 3T3 cells [2] = experiment: NRU assay (lysosomal activity), Balb/c 3T3; format: cell-based, mouse; conditions: for Lowest concentration with significant (p ≤ 0.05) inhibition of lysosomal activity (NRU): Balb/c 3T3, 72 h, vs negative control 0.1% DMSO
Description: as §1, §2, §3
(§6) The assay, based on the staining of living cells by neutral red, was performed according to the protocol described by Borenfreund and Puerner. After incubation, the medium containing the compound was removed and the cells were washed with PBS. Then, a 100 µL/well of NR solution (50 µg/mL) was added for 3 h. After that time, the cells were washed with PBS. The dye from viable cells was released by extraction with a mixture of acetic acid, ethanol, and water. After 10 min of shaking, the absorbance of the dissolved NR was measured at 540 nm in a microplate reader (LabSystems Multiskan RC, Thermo Fisher Scientific, Waltham, MA, USA) using a blank as a reference. Cytotoxicity was expressed as a percentage of the negative control (0.1% DMSO).
as §5

Balb/c 3T3 cells [3] = experiment: TPC assay (total protein content), Balb/c 3T3; format: cell-based, mouse; conditions: for Lowest concentration with significant (p ≤ 0.05) decrease of total protein content (TPC): Balb/c 3T3, 72 h, vs negative control 0.1% DMSO
Description: as §1, §2, §3
(§7) The assay was based upon staining total cellular protein (proliferation). After incubation, the medium containing the compound was removed and 100 µL of Coomassie Brilliant Blue R-250 dye were added to each well. The plate was shaken for 10 min. Then, the stain was removed and the cells were rinsed twice with 100 µL of washing solution (glacial acetic acid/ethanol/water). After that, a 100 µL portion of the desorbing solution (1 M potassium acetate) was added and plates were shaken again for 10 min. The absorbance was measured at 595 nm in a microplate reader (LabSystems Multiskan RC, Thermo Fisher Scientific, Waltham, MA, USA) using a blank as a reference. Cytotoxicity was expressed as a percentage of the negative control (0.1% DMSO).
as §5

Balb/c 3T3 cells [4] = experiment: Leakage LDH assay (cellular membrane integrity), Balb/c 3T3; format: cell-based, mouse; conditions: for Lowest concentration with significant (p ≤ 0.05) disintegration of the cellular membrane (LDH): Balb/c 3T3, 72 h, vs negative control 0.1% DMSO
Description: as §1, §2, §3
(§8) The integrity of the plasma membrane was assessed using the test of lactate dehydrogenase (LDH) release, which was monitored using the commercially available Cytotoxicity Detection Kit (LDH) (Roche Diagnostics, Warsaw, Poland). The medium (100 µL/well) without cells was transferred into the corresponding wells of an optically clear 96-well flat bottom microplate and a 100 µl reaction mixture was added to each well. Then, the plates were incubated for 30 min at room temperature in darkness. After that time, a 50 µL/well 1 M HCl was added to stop the reaction. The absorbance was measured at 492 nm in a microplate reader (LabSystems Multiskan RC, Thermo Fisher Scientific, Waltham, MA, USA) using a blank as a reference.
as §5

HepG2 cells [5] = experiment: MTT assay (mitochondrial activity), HepG2; format: cell-based, human; conditions: for Lowest concentration with significant (p ≤ 0.05) inhibition of mitochondrial activity (MTT): HepG2, 72 h, vs negative control 0.1% DMSO
Description: as §1, §2, §3, §4, §5

HepG2 cells [6] = experiment: NRU assay (lysosomal activity), HepG2; format: cell-based, human; conditions: for Lowest concentration with significant (p ≤ 0.05) inhibition of lysosomal activity (NRU): HepG2, 72 h, vs negative control 0.1% DMSO
Description: as §1, §2, §3, §6, §5

HepG2 cells [7] = experiment: TPC assay (total protein content), HepG2; format: cell-based, human; conditions: for Lowest concentration with significant (p ≤ 0.05) decrease of total protein content (TPC): HepG2, 72 h, vs negative control 0.1% DMSO
Description: as §1, §2, §3, §7, §5

HepG2 cells [8] = experiment: Leakage LDH assay (cellular membrane integrity), HepG2; format: cell-based, human; conditions: for Lowest concentration with significant (p ≤ 0.05) disintegration of the cellular membrane (LDH): HepG2, 72 h, vs negative control 0.1% DMSO
Description: as §1, §2, §3, §8, §5

[9] = Cytotoxicity over four assays in both cell lines; format: cell-based; conditions: mouse (Balb/c 3T3) and human (HepG2), Balb/c 3T3 clone A31 fibroblasts and HepG2 hepatoma cells, mostly greater than 50%, read-out: Viability of the cells at the highest concentrations used
Description: as §1
as §2, with “Single cell suspensions were prepared and adjusted to a density of 2 × 10^5 cells/mL (HepG2) and 5 × 10^4 cells/mL (Balb/c 3T3). The cell suspension was transferred to 96-well plates (100 µL/well) and incubated for 24 h before the exposure to the study compounds.” left out
The concentration ranges of compounds were chosen according to their solubility and their plasma level. […] Cytotoxicity was assessed after 72 h of exposure of the cells to the compounds. […]
The results of the tests were expressed as a mean ± SD. […] The IC50 values were calculated by GraphPad Prism 5 software (San Diego, CA, USA). […]

[10] = tested on: murine melanoma (B16) cell line; set-up: method as in PMID 26828469; conditions: same observation as in this study; cited from earlier work
10T1/2 cell line = tested on: 10T1/2 cell line; set-up: method as in PMID 26828469; conditions: same observation as in this study; cited from earlier work

SMILES	Lowest concentration with significant (p ≤ 0.05) inhibition of mitochondrial activity (MTT) (Balb/c 3T3 cells [1]) [µM]	IC50 (Balb/c 3T3 cells [1]; Mus musculus, BALB/c3T3, Balb/c 3T3, 72 h exposure, mean (n = 3) ± SEM, read-out: Inhibitory concentration IC50, MTT) [µM]	Lowest concentration with significant (p ≤ 0.05) inhibition of lysosomal activity (NRU) (Balb/c 3T3 cells [2]) [µM]	IC50 (Balb/c 3T3 cells [2]; Mus musculus, BALB/c3T3, Balb/c 3T3, 72 h exposure, mean (n = 3) ± SEM, read-out: Inhibitory concentration IC50, NRU) [µM]	Lowest concentration with significant (p ≤ 0.05) decrease of total protein content (TPC) (Balb/c 3T3 cells [3]) [µM]	IC50 (Balb/c 3T3 cells [3]; Mus musculus, BALB/c3T3, Balb/c 3T3, 72 h exposure, mean (n = 3) ± SEM, read-out: Inhibitory concentration IC50, TPC) [µM]	IC50 (Balb/c 3T3 cells [4]; Mus musculus, BALB/c3T3, Balb/c 3T3, 72 h exposure, mean (n = 3) ± SEM, read-out: Inhibitory concentration IC50, LDH) [µM]	IC50 (HepG2 cells [5]; Homo sapiens, HepG2, 72 h exposure, mean (n = 3) ± SEM, read-out: Inhibitory concentration IC50, MTT) [µM]	IC50 (HepG2 cells [6]; Homo sapiens, HepG2, 72 h exposure, mean (n = 3) ± SEM, read-out: Inhibitory concentration IC50, NRU) [µM]	IC50 (HepG2 cells [7]; Homo sapiens, HepG2, 72 h exposure, mean (n = 3) ± SEM, read-out: Inhibitory concentration IC50, TPC) [µM]	IC50 (HepG2 cells [8]; Homo sapiens, HepG2, 72 h exposure, mean (n = 3) ± SEM, read-out: Inhibitory concentration IC50, LDH) [µM]	viability at 72 h [9] [%]	Cytotoxicity in B16 cell line [10]	Cytotoxicity in 10T1/2 cell line (10T1/2 cell line)	Lowest concentration with significant (p ≤ 0.05) disintegration of the cellular membrane (LDH) (Balb/c 3T3 cells [4]) [µM]	Lowest concentration with significant (p ≤ 0.05) inhibition of mitochondrial activity (MTT) (HepG2 cells [5]) [µM]	Lowest concentration with significant (p ≤ 0.05) inhibition of lysosomal activity (NRU) (HepG2 cells [6]) [µM]	Lowest concentration with significant (p ≤ 0.05) decrease of total protein content (TPC) (HepG2 cells [7]) [µM]	Lowest concentration with significant (p ≤ 0.05) disintegration of the cellular membrane (LDH) (HepG2 cells [8]) [µM]
OCc1ccncc1 [4-hydroxymethylpyridine]	13.6	> 227	7.0	> 227	57	> 227	> 227	> 227	> 227	> 227	> 227	> 50	poorly cytotoxic	poorly cytotoxic	–	–	–	–	–
O=[N+]([O-])[O-].OCc1ccncc1.OCc1ccncc1.[Ag+] [Silver(I) + 4-hydroxymethylpyridine, [(4-hydroxymethylpyridine)2Ag]NO3]	3.8	–	0.98	–	1.9	–	–	–	–	–	–	–	–	–	0.98	3.8	3.8	7.6	3.8
Cc1ncc([N+](=O)[O-])n1CCO.Cc1ncc([N+](=O)[O-])n1CCO.O=[N+]([O-])[O-].[Ag+] [Silver(I) + metronidazole, [(Metronidazole)2AgNO3]]	0.74	–	3.0	–	3.0	–	–	–	–	–	–	–	–	–	0.74	6.0	6.0	3.0	6.0
